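Each compound was tested at five concentrations against cells in 96-well plates for 48 hours. Definition used: TGI = concentration required for complete inhibition of growth.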
Experiments:
Assay in all cases: inhibition of tumour cell growth, NCI panel, 48 h
UACC-62 melanoma = system: UACC-62 melanoma
XF 498 CNS = system: XF 498 CNS
HL-60(TB) leukemia = system: HL-60(TB) leukemia
KM20L2 colon = system: KM20L2 colon
HCT-116 colon = system: HCT-116 colon
RXF 393 renal = system: RXF 393 renal
DMS 273 small cell lung = system: DMS 273 small cell lung
TK-10 renal = system: TK-10 renal
CAKI-1 renal = system: CAKI-1 renal
K-562 leukemia = system: K-562 leukemia
SK-MEL-5 melanoma = system: SK-MEL-5 melanoma
DLD-1 colon = system: DLD-1 colon
NCI-H460 lung = system: NCI-H460 lung
SW-620 colon = system: SW-620 colon
MOLT-4 leukemia = system: MOLT-4 leukemia
CCRF-CEM leukemia = system: CCRF-CEM leukemia
LXFL 529 NSCLC = system: LXFL 529 NSCLC
NCI-H522 lung = system: NCI-H522 lung
A549 NSCLC = system: A549 NSCLC
SF-268 CNS = system: SF-268 CNS
RXF-631 renal = system: RXF-631 renal
U251 CNS = system: U251 CNS
NCI-H23 lung = system: NCI-H23 lung
A498 renal = system: A498 renal
HOP-18 NSCLC = system: HOP-18 NSCLC
COLO 205 colon = system: COLO 205 colon
SK-MEL-28 melanoma = system: SK-MEL-28 melanoma
EKVX NSCLC = system: EKVX NSCLC
M19-MEL melanoma = system: M19-MEL melanoma
LOX IMVI melanoma = system: LOX IMVI melanoma
HCT-15 colon = system: HCT-15 colon
786-0 renal = system: 786-0 renal
SF-539 CNS = system: SF-539 CNS
M14 melanoma = system: M14 melanoma
IGROV1 ovarian = system: IGROV1 ovarian
OVCAR-8 ovarian = system: OVCAR-8 ovarian
HT29 colon = system: HT29 colon
HOP-92 NSCLC = system: HOP-92 NSCLC
SN12C renal = system: SN12C renal
RPMI-8226 leukemia = system: RPMI-8226 leukemia
ACHN renal = system: ACHN renal
SNB-19 CNS = system: SNB-19 CNS
UO-31 renal = system: UO-31 renal
DMS 114 small cell lung = system: DMS 114 small cell lung
SK-OV-3 ovarian = system: SK-OV-3 ovarian
HOP-62 NSCLC = system: HOP-62 NSCLC
SR leukemia = system: SR leukemia
NCI-H226 lung = system: NCI-H226 lung
SF-295 CNS = system: SF-295 CNS
SK-MEL-2 melanoma = system: SK-MEL-2 melanoma
UACC-257 melanoma = system: UACC-257 melanoma
KM12 colon = system: KM12 colon
OVCAR-3 ovarian = system: OVCAR-3 ovarian
OVCAR-5 ovarian = system: OVCAR-5 ovarian
SNB-78 CNS = system: SNB-78 CNS
HCC-2998 colon = system: HCC-2998 colon
MALME-3M melanoma = system: MALME-3M melanoma
SNB-75 CNS = system: SNB-75 CNS
OVCAR-4 ovarian = system: OVCAR-4 ovarian

## Cn1c2c(c3ccccc31)CCN(CCCN1CCN(c3cccc(Cl)c3)CC1)C2=O
UACC-62 melanoma
  TGI: 39.2 µM
XF 498 CNS
  TGI: 27.6 µM
HL-60(TB) leukemia
  TGI: 24.2 µM
KM20L2 colon
  TGI: 11.1 µM
HCT-116 colon
  TGI: 24.8 µM
RXF 393 renal
  TGI: 49.7 µM
DMS 273 small cell lung
  TGI: 84.5 µM
TK-10 renal
  TGI: > 100 µM
CAKI-1 renal
  TGI: 38.4 µM
K-562 leukemia
  TGI: 35.8 µM
SK-MEL-5 melanoma
  TGI: 36.1 µM
DLD-1 colon
  TGI: > 100 µM
NCI-H460 lung
  TGI: 29.9 µM
SW-620 colon
  TGI: > 100 µM
MOLT-4 leukemia
  TGI: 55.3 µM
CCRF-CEM leukemia
  TGI: > 100 µM
LXFL 529 NSCLC
  TGI: 32.2 µM
NCI-H522 lung
  TGI: 79.9 µM
A549 NSCLC
  TGI: > 100 µM
SF-268 CNS
  TGI: > 100 µM
RXF-631 renal
  TGI: 90.7 µM
U251 CNS
  TGI: 12.7 µM
NCI-H23 lung
  TGI: 66.9 µM
A498 renal
  TGI: 10 µM
HOP-18 NSCLC
  TGI: 83.1 µM
COLO 205 colon
  TGI: 31.8 µM
SK-MEL-28 melanoma
  TGI: 34.3 µM
EKVX NSCLC
  TGI: > 100 µM
M19-MEL melanoma
  TGI: 42.5 µM
LOX IMVI melanoma
  TGI: 50.8 µM
HCT-15 colon
  TGI: > 100 µM
786-0 renal
  TGI: 34.5 µM
SF-539 CNS
  TGI: 32.1 µM
M14 melanoma
  TGI: 40.1 µM
IGROV1 ovarian
  TGI: 66.1 µM
OVCAR-8 ovarian
  TGI: 77.4 µM
HT29 colon
  TGI: 29 µM
HOP-92 NSCLC
  TGI: 18.7 µM
SN12C renal
  TGI: 62.4 µM
RPMI-8226 leukemia
  TGI: 35 µM
ACHN renal
  TGI: 96.8 µM
SNB-19 CNS
  TGI: 86.2 µM
UO-31 renal
  TGI: 32.6 µM
DMS 114 small cell lung
  TGI: 44.4 µM
SK-OV-3 ovarian
  TGI: > 100 µM
HOP-62 NSCLC
  TGI: 41.1 µM

## CCCCNC(=O)NNC(=O)c1cc(/C=C/c2cccc([N+](=O)[O-])c2)ncn1
UACC-62 melanoma
  TGI: > 100 µM
SR leukemia
  TGI: > 100 µM
XF 498 CNS
  TGI: > 100 µM
NCI-H226 lung
  TGI: > 100 µM
HL-60(TB) leukemia
  TGI: > 100 µM
KM20L2 colon
  TGI: > 100 µM
HCT-116 colon
  TGI: > 100 µM
RXF 393 renal
  TGI: > 100 µM
SF-295 CNS
  TGI: > 100 µM
DMS 273 small cell lung
  TGI: > 100 µM
TK-10 renal
  TGI: > 100 µM
CAKI-1 renal
  TGI: > 100 µM
K-562 leukemia
  TGI: > 100 µM
SK-MEL-5 melanoma
  TGI: > 100 µM
DLD-1 colon
  TGI: > 100 µM
SK-MEL-2 melanoma
  TGI: > 100 µM
NCI-H460 lung
  TGI: > 100 µM
SW-620 colon
  TGI: 33.7 µM
MOLT-4 leukemia
  TGI: > 100 µM
CCRF-CEM leukemia
  TGI: > 100 µM
NCI-H522 lung
  TGI: > 100 µM
UACC-257 melanoma
  TGI: > 100 µM
A549 NSCLC
  TGI: > 100 µM
SF-268 CNS
  TGI: > 100 µM
RXF-631 renal
  TGI: > 100 µM
U251 CNS
  TGI: 44.8 µM
NCI-H23 lung
  TGI: > 100 µM
KM12 colon
  TGI: > 100 µM
A498 renal
  TGI: > 100 µM
OVCAR-3 ovarian
  TGI: > 100 µM
HOP-18 NSCLC
  TGI: > 100 µM
COLO 205 colon
  TGI: > 100 µM
SK-MEL-28 melanoma
  TGI: > 100 µM
EKVX NSCLC
  TGI: > 100 µM
M19-MEL melanoma
  TGI: > 100 µM
LOX IMVI melanoma
  TGI: > 100 µM
HCT-15 colon
  TGI: > 100 µM
786-0 renal
  TGI: > 100 µM
OVCAR-5 ovarian
  TGI: > 100 µM
M14 melanoma
  TGI: > 100 µM
IGROV1 ovarian
  TGI: > 100 µM
SNB-78 CNS
  TGI: > 100 µM
OVCAR-8 ovarian
  TGI: > 100 µM
HT29 colon
  TGI: > 100 µM
HOP-92 NSCLC
  TGI: > 100 µM
SN12C renal
  TGI: > 100 µM
HCC-2998 colon
  TGI: > 100 µM
RPMI-8226 leukemia
  TGI: 59.8 µM
MALME-3M melanoma
  TGI: > 100 µM
ACHN renal
  TGI: > 100 µM
SNB-19 CNS
  TGI: > 100 µM
UO-31 renal
  TGI: > 100 µM
SNB-75 CNS
  TGI: > 100 µM
DMS 114 small cell lung
  TGI: > 100 µM
SK-OV-3 ovarian
  TGI: > 100 µM
HOP-62 NSCLC
  TGI: > 100 µM

## CC(=O)c1cccc(NC(=O)C(=O)C(C(=O)NN)c2ccccc2)c1 (configuration not stated)
UACC-62 melanoma
  TGI: > 100 µM
XF 498 CNS
  TGI: > 100 µM
NCI-H226 lung
  TGI: > 100 µM
KM20L2 colon
  TGI: > 100 µM
HCT-116 colon
  TGI: > 100 µM
RXF 393 renal
  TGI: > 100 µM
DMS 273 small cell lung
  TGI: > 100 µM
TK-10 renal
  TGI: > 100 µM
CAKI-1 renal
  TGI: > 100 µM
K-562 leukemia
  TGI: > 100 µM
SK-MEL-5 melanoma
  TGI: > 100 µM
DLD-1 colon
  TGI: > 100 µM
SK-MEL-2 melanoma
  TGI: > 100 µM
NCI-H460 lung
  TGI: > 100 µM
SW-620 colon
  TGI: > 100 µM
MOLT-4 leukemia
  TGI: > 100 µM
CCRF-CEM leukemia
  TGI: > 100 µM
LXFL 529 NSCLC
  TGI: > 100 µM
NCI-H522 lung
  TGI: > 100 µM
UACC-257 melanoma
  TGI: > 100 µM
A549 NSCLC
  TGI: > 100 µM
SF-268 CNS
  TGI: > 100 µM
RXF-631 renal
  TGI: > 100 µM
U251 CNS
  TGI: > 100 µM
OVCAR-4 ovarian
  TGI: > 100 µM
NCI-H23 lung
  TGI: > 100 µM
KM12 colon
  TGI: > 100 µM
A498 renal
  TGI: > 100 µM
OVCAR-3 ovarian
  TGI: > 100 µM
HOP-18 NSCLC
  TGI: > 100 µM
COLO 205 colon
  TGI: > 100 µM
SK-MEL-28 melanoma
  TGI: > 100 µM
EKVX NSCLC
  TGI: > 100 µM
M19-MEL melanoma
  TGI: > 100 µM
LOX IMVI melanoma
  TGI: > 100 µM
HCT-15 colon
  TGI: > 100 µM
786-0 renal
  TGI: > 100 µM
OVCAR-5 ovarian
  TGI: > 100 µM
SF-539 CNS
  TGI: > 100 µM
M14 melanoma
  TGI: > 100 µM
IGROV1 ovarian
  TGI: > 100 µM
OVCAR-8 ovarian
  TGI: > 100 µM
HT29 colon
  TGI: > 100 µM
HOP-92 NSCLC
  TGI: > 100 µM
SN12C renal
  TGI: > 100 µM
HCC-2998 colon
  TGI: > 100 µM
RPMI-8226 leukemia
  TGI: > 100 µM
MALME-3M melanoma
  TGI: > 100 µM
ACHN renal
  TGI: > 100 µM
SNB-19 CNS
  TGI: > 100 µM
UO-31 renal
  TGI: > 100 µM
SNB-75 CNS
  TGI: > 100 µM
DMS 114 small cell lung
  TGI: > 100 µM
SK-OV-3 ovarian
  TGI: > 100 µM
HOP-62 NSCLC
  TGI: > 100 µM

Reference: PubChem BioAssay (NCI)
